Measured values published in US20210255193A1, “LYSINE REACTIVE PROBES AND USES THEREOF” (The Scripps Research Institute, priority 2017, published 2021).

Legend:
Assay in all cases: competitive isoTOP-ABPP
Format in all cases: binding
[1] = target: T1, EIF3G Eukaryotic translation initiation factor 3 subunit (Homo sapiens, UniProt O75821); settings: for R value (DMSO/fragment) for probe 1 labeling: O75821_K280; for R value (DMSO/fragment) for probe 1 labeling / isoTOP-ABPP reactivity ratio at lysine O75821_K280: 231 sol; for isoTOP-ABPP ratio, lysine O75821_K280: 50 uM_231_sol_in vitro
T1 construct: isoTOP-ABPP experiments performed in cell lysates (in vitro); endogenous in cells; host or cells: MDA-MB-231 soluble lysate
Procedure, shortened: (§1)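 Here, isoTOP-ABPP measures loss of STP-alkyne labeling at individual lysines after fragment exposure in lysate. Activated esters are dosed at 50 μM, guanidinylating agents at 100 μM; the probe follows at 0.1 mM for 1 h. R ≥4 marks a liganded lysine.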

[2] = target: T2, PSMC6 26S protease regulatory subunit 10B (Homo sapiens, UniProt P62333); settings: for isoTOP-ABPP reactivity ratio at lysine P62333_K72 / isoTOP-ABPP ratio (R) at liganded lysine P62333_K72: 50 uM, in vitro; for isoTOP-ABPP reactivity ratio at lysine P62333_K72: 231 sol; for isoTOP-ABPP ratio (R) at liganded lysine P62333_K72: sol, 231
T2 construct: isoTOP-ABPP experiments performed in cell lysates (in vitro); endogenous in cells; host or cells: soluble proteome of human cancer cell lines (MDA-MB-231, Ramos, Jurkat)
Procedure, shortened: as §1

[3] = target: T3, MTHFD1 C-1-tetrahydrofolate synthase, cytoplasmic (Homo sapiens, UniProt P11586); settings: for isoTOP-ABPP reactivity ratio at lysine P11586_K760 / isoTOP-ABPP ratio (R) at liganded lysine P11586_K760: 50 uM, in vitro; for isoTOP-ABPP reactivity ratio at lysine P11586_K760: 231 sol; for isoTOP-ABPP ratio (R) at liganded lysine P11586_K760: sol, 231
T3 construct: isoTOP-ABPP experiments performed in cell lysates (in vitro); endogenous in cells; host or cells: MDA-MB-231 soluble lysate
T3 sequence (P11586 1-935): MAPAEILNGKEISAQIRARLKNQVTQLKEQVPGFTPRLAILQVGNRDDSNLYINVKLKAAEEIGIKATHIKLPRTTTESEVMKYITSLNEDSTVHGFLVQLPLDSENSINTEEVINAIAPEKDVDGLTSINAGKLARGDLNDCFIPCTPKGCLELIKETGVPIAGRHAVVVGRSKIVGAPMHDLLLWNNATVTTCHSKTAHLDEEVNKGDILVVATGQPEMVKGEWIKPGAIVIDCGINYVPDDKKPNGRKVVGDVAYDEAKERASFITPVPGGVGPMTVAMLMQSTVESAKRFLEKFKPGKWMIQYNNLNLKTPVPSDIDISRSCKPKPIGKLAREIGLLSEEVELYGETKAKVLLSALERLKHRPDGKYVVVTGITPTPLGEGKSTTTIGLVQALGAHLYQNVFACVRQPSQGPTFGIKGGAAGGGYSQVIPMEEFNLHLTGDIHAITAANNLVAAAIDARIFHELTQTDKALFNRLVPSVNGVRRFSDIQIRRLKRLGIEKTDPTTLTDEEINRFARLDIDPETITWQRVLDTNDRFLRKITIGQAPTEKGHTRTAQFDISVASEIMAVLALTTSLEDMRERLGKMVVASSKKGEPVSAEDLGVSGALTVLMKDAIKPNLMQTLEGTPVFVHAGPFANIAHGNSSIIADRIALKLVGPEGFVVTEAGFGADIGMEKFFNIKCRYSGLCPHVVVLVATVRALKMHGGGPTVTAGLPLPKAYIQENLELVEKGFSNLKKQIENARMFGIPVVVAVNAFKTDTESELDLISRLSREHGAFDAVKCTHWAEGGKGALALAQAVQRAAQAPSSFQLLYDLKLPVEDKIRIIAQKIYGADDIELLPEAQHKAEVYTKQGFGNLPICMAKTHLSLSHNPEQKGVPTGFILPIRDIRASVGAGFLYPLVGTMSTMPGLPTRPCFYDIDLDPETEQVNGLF
Procedure, shortened: as §1

[4] = target: T4, RPL9P9 60S ribosomal protein L9 (Homo sapiens, UniProt P32969); settings: for isoTOP-ABPP reactivity ratio at lysine P32969_K82 / isoTOP-ABPP ratio (R) at liganded lysine P32969_K82: 50 uM, in vitro; for isoTOP-ABPP reactivity ratio at lysine P32969_K82: 231 sol; for isoTOP-ABPP ratio (R) at liganded lysine P32969_K82: sol, 231; for isoTOP-ABPP ratio, lysine P32969_K82: 50 uM_231_sol_in vitro
T4 construct: isoTOP-ABPP experiments performed in cell lysates (in vitro); endogenous in cells; host or cells: soluble proteome of human cancer cell lines (MDA-MB-231; Ramos and Jurkat also prepared)
Procedure, shortened: as §1

O=C(Oc1c(F)c(F)c(F)c(F)c1F)C(c1ccccc1)c1ccccc1 [fragment 20, Pentafluorophenyl 2,2-diphenylacetate]
R value (DMSO/fragment) for probe 1 labeling ([1]; 50 uM, in vitro): 0.9

O=C(Oc1c(F)c(F)c(F)c(F)c1F)c1cc(C(F)(F)F)cc(C(F)(F)F)c1 [fragment 21, Pentafluorophenyl 3,5-bis(trifluoromethyl)benzoate]
R value (DMSO/fragment) for probe 1 labeling ([1]; 50 uM, in vitro): 1.7

Cn1cc(CC(=O)Oc2c(F)c(F)c(F)c(F)c2F)c2ccccc21 [fragment 22, Pentafluorophenyl 2-(1-methyl-1H-indol-3-yl)acetate]
R value (DMSO/fragment) for probe 1 labeling ([1]; 50 uM, in vitro): 0.6

CCn1cc(C(=O)Oc2c(F)c(F)c(F)c(F)c2F)c(=O)c2ccc(C)nc21 [fragment 28, Pentafluorophenyl 1-ethyl-7-methyl-4-oxo-1,4-dihydro-1,8-naphthyridine-3-carboxylate]
isoTOP-ABPP reactivity ratio at lysine P62333_K72 [2]: 20.0

O=C(CCc1cn(-c2ccccc2)nc1-c1ccccc1)Oc1ccc([N+](=O)[O-])cc1[N+](=O)[O-] [fragment 29, 2,4-Dinitrophenyl 3-(1,3-diphenyl-1H-pyrazol-4-yl)propanoate]
isoTOP-ABPP reactivity ratio at lysine O75821_K280 ([1]; 50 uM, in vitro): 5.3 | isoTOP-ABPP reactivity ratio at lysine P62333_K72 [2]: 20.0

O=C(Oc1ccc([N+](=O)[O-])cc1[N+](=O)[O-])C(c1ccccc1)c1ccccc1 [fragment 30, 2,4-Dinitrophenyl 2,2-diphenylacetate]
isoTOP-ABPP reactivity ratio at lysine O75821_K280 ([1]; 50 uM, in vitro): 1.0 | isoTOP-ABPP reactivity ratio at lysine P11586_K760 [3]: 0.9

O=C(Oc1ccc([N+](=O)[O-])cc1[N+](=O)[O-])c1cc(C(F)(F)F)cc(C(F)(F)F)c1 [fragment 31, 2,4-Dinitrophenyl 3,5-bis(trifluoromethyl)benzoate]
isoTOP-ABPP reactivity ratio at lysine P11586_K760 [3]: 0.8 | isoTOP-ABPP reactivity ratio at lysine P32969_K82 [4]: 0.9

Cn1cc(CC(=O)Oc2ccc([N+](=O)[O-])cc2[N+](=O)[O-])c2ccccc21 [fragment 32, 2,4-Dinitrophenyl 2-(1-methyl-1H-indol-3-yl)acetate]
isoTOP-ABPP reactivity ratio at lysine P11586_K760 [3]: 0.6 | isoTOP-ABPP reactivity ratio at lysine P62333_K72 [2]: 1.4 | isoTOP-ABPP reactivity ratio at lysine P32969_K82 [4]: 1.0

O=C(Oc1ccc([N+](=O)[O-])cc1[N+](=O)[O-])c1ccc2ccccc2n1 [fragment 35, 2,4-Dinitrophenyl quinoline-2-carboxylate]
isoTOP-ABPP ratio (R) at liganded lysine O75821_K280 ([1]; 50 uM, in vitro, sol, 231): 1.0 | isoTOP-ABPP ratio (R) at liganded lysine P32969_K82 [4]: 0.8

O=C(Oc1ccc([N+](=O)[O-])cc1[N+](=O)[O-])c1ccc(-c2ccccc2)cc1 [fragment 37, 2,4-Dinitrophenyl [1,1′-biphenyl]-4-carboxylate]
isoTOP-ABPP ratio (R) at liganded lysine P62333_K72 [2]: 0.9

O=C(CC12CC3CC(CC(C3)C1)C2)Oc1ccc([N+](=O)[O-])cc1[N+](=O)[O-] [fragment 38, 2,4-Dinitrophenyl 2-(adamantan-1-yl)acetate]
isoTOP-ABPP ratio (R) at liganded lysine P11586_K760 [3]: 1.3

O=C(Oc1ccc([N+](=O)[O-])cc1[N+](=O)[O-])c1ccc(Oc2ccccc2)cc1 [fragment 39, 2,4-Dinitrophenyl 4-phenoxybenzoate]
isoTOP-ABPP ratio (R) at liganded lysine P62333_K72 [2]: 1.1 | isoTOP-ABPP ratio (R) at liganded lysine P32969_K82 [4]: 0.7

CC(C)(C)OC(=O)NCCCC(=O)Oc1ccc([N+](=O)[O-])cc1[N+](=O)[O-] [fragment 41, 2,4-Dinitrophenyl 4-((tert-butoxycarbonyl)amino)butanoate]
isoTOP-ABPP ratio (R) at liganded lysine P11586_K760 [3]: 4.2 | isoTOP-ABPP ratio (R) at liganded lysine P62333_K72 [2]: 1.2 | isoTOP-ABPP ratio (R) at liganded lysine P32969_K82 [4]: 0.9

CC(=O)Oc1ccc([N+](=O)[O-])cc1[N+](=O)[O-] [fragment 43, 2,4-Dinitrophenyl acetate]
isoTOP-ABPP ratio (R) at liganded lysine P62333_K72 [2]: 1.9 | isoTOP-ABPP ratio (R) at liganded lysine P32969_K82 [4]: 0.9

N#Cc1ccc(C(=O)Oc2ccc([N+](=O)[O-])cc2[N+](=O)[O-])cc1 [fragment 44, 2,4-Dinitrophenyl 4-cyanobenzoate]
isoTOP-ABPP ratio, lysine O75821_K280 [1]: 0.9 | isoTOP-ABPP ratio, lysine P32969_K82 [4]: 14.5

O=C(CCc1ccc2c(c1)OCO2)Oc1ccc([N+](=O)[O-])cc1[N+](=O)[O-] [fragment 45, 2,4-Dinitrophenyl 3-(benzo[d][1,3]dioxol-5-yl)propanoate]
isoTOP-ABPP ratio, lysine O75821_K280 [1]: 0.9 | isoTOP-ABPP ratio, lysine P32969_K82 [4]: 1.0

O=C(ON1C(=O)CCC1=O)c1cc(C(F)(F)F)cc(C(F)(F)F)c1 [fragment 46, 3,5-Bis(trifluoromethyl)benzoic acid NHS ester]
isoTOP-ABPP ratio, lysine O75821_K280 [1]: 0.8 | isoTOP-ABPP ratio, lysine P62333_K72 ([2]; 50 uM_231_sol_in vitro): 0.9 | isoTOP-ABPP ratio, lysine P32969_K82 [4]: 0.5

CC(C)(C)OC(=O)N=C(NC(=O)OC(C)(C)C)n1cccn1 [fragment 50, reference compound]
isoTOP-ABPP ratio, lysine P11586_K760 ([3]; 100 uM_231_sol_in vitro): 0.6 | isoTOP-ABPP ratio, lysine P62333_K72 ([2]; 100 uM_231_sol_in vitro): 1.3
